Reference: patent publication US5929075A, “Apolipoprotein-B synthesis inhibitors” (Janssen Pharmaceutica, N.V., priority 1994, dated 1999)

System: apolipoprotein B
Test: Apolipoprotein B (apo B) inhibition test in cultured human liver cells (Hepg2-cells)
Assay type: cell-based
Conditions: concentration of the drug needed to reduce apoB secretion to 50% of the control, overnight at 37° C.
Description: Cultured human liver cells (Hepg2-cells), which synthesize and secrete low-density lipoproteins, were incubated overnight at 37° C. in a liquid medium containing radioactively labelled leucine. Thus radioactively labelled leucine was incorporated into the apolipoprotein B. The liquid medium was decanted and the apolipoprotein B was isolated by means of a double immunoprecipitation, i.e. first an apolipoprotein B-specific antibody (antibody1) was added to the liquid medium and subsequently a second antibody (antibody2) was added which binds specifically to the apoB-antibody1 -complex. The thus formed apoB-antibody1 -antibody2 complex precipitated and was isolated by centrifuge. Quantification of the amount of apolipoprotein B synthesized during the night resulted from measuring the radioactivity of the isolated complex. To measure the inhibiting activity of the test compound, that test compound was added to the liquid medium at different concentrations and the concentration of apolipoprotein B synthesized in the presence of a test compound (concentration apoB(after)) was compared to the concentration of apolipoprotein B which was synthesized in the absence of the test compound (concentration apoB(control)). For each experiment the inhibition of apolipoprotein-B formation was expressed as
% inhibition=100×(1-concentration of apoB(after)/concentration
When more experiments were carried out for the same concentration, the median value of the inhibition calculated for these experiments was calculated. IC50 -values (concentration of the drug needed to reduce apoB secretion to 50% of the control) were also computed.

Row | SMILES | IC50
1 | CC(C)n1cnn(-c2ccc(N3CCN(c4ccc(OC[C@@H]5CO[C@@](CSc6nncn6C)(c6ccc(Cl)cc6)O5)cc4)CC3)cc2)c1=O (relative stereo) [Compound 1] | 92 nM
2 | CC(C)n1cnn(-c2ccc(N3CCN(c4ccc(OC[C@@H]5CO[C@@](CSc6nncn6C)(c6ccc(F)cc6)O5)cc4)CC3)cc2)c1=O (relative stereo) [Compound 4] | 260 nM
3 | CC(C)Cn1cnn(-c2ccc(N3CCN(c4ccc(OC[C@@H]5CO[C@@](CSc6nncn6C)(c6ccc(F)cc6)O5)cc4)CC3)cc2)c1=O (relative stereo) [Compound 5] | 200 nM
4 | Cn1cnnc1SC[C@@]1(c2ccc(Cl)cc2)OC[C@@H](COc2ccc(N3CCN(c4ccc(-n5ncn(C6CCCC6)c5=O)cc4)CC3)cc2)O1 (relative stereo) [Compound 6] | 120 nM
5 | CCCn1cnn(-c2ccc(N3CCN(c4ccc(OC[C@@H]5CO[C@@](CSc6nncn6C)(c6ccc(Cl)cc6)O5)cc4)CC3)cc2)c1=O (relative stereo) [Compound 8] | 130 nM
6 | CCC(C)n1cnn(-c2ccc(N3CCN(c4ccc(OC[C@@H]5CO[C@@](CSc6nncn6C)(c6ccc(F)cc6)O5)cc4)CC3)cc2)c1=O (relative stereo) [Compound 9] | 110 nM
7 | CCC(CC)n1cnn(-c2ccc(N3CCN(c4ccc(OC[C@@H]5CO[C@@](CSc6nncn6C)(c6ccc(F)cc6)O5)cc4)CC3)cc2)c1=O (relative stereo) [Compound 12] | 190 nM
8 | Cn1cnnc1SC[C@@]1(c2ccc(F)cc2F)OC[C@@H](COc2ccc(N3CCN(c4ccc(-n5ncn(C6CCCC6)c5=O)cc4)CC3)cc2)O1 (relative stereo) [Compound 13] | 510 nM
9 | CC(C)Cn1ncn(-c2ccc(N3CCN(c4ccc(OC[C@@H]5CO[C@@](CSc6nncn6C)(c6ccc(Cl)cc6)O5)cc4)CC3)cc2)c1=O (relative stereo) [Compound 23] | 140 nM
10 | CCC(C)n1ncn(-c2ccc(N3CCN(c4ccc(OC[C@@H]5CO[C@@](CSc6nncn6C)(c6ccc(F)cc6)O5)cc4)CC3)cc2)c1=O (relative stereo) [Compound 28] | 97 nM
11 | CCCCCn1ncn(-c2ccc(N3CCN(c4ccc(OC[C@@H]5CO[C@@](CSc6nncn6C)(c6ccc(Cl)cc6)O5)cc4)CC3)cc2)c1=O (relative stereo) [Compound 32] | 180 nM
12 | CC(C)n1ncn(-c2ccc(N3CCN(c4ccc(OC[C@@H]5CO[C@@](CSc6nncn6C)(c6ccc(Cl)cc6)O5)cc4)CC3)cc2)c1=O (relative stereo) [Compound 33] | 91 nM
13 | Cn1cnnc1SC[C@@]1(c2ccc(F)cc2F)OC[C@@H](COc2ccc(N3CCN(c4ccc(-n5cnn(C6CCCC6)c5=O)cc4)CC3)cc2)O1 (relative stereo) [Compound 37] | 230 nM
14 | CCC(CC)n1ncn(-c2ccc(N3CCN(c4ccc(OC[C@@H]5CO[C@@](CSc6nncn6C)(c6ccc(F)cc6)O5)cc4)CC3)cc2)c1=O (relative stereo) [Compound 43] | 110 nM
15 | CCC(C)n1ncn(-c2ccc(N3CCN(c4ccc(OC[C@@H]5CO[C@@](CSc6nnc(C(F)(F)F)[nH]6)(c6ccc(Cl)cc6)O5)cc4)CC3)cc2)c1=O (relative stereo) [Compound 49] | 850 nM
16 | CCC(C)n1ncn(-c2ccc(N3CCN(c4ccc(OC[C@@H]5CO[C@@](CSc6nnc(C(F)(F)F)n6C)(c6ccc(Cl)cc6)O5)cc4)CC3)cc2)c1=O (relative stereo) [Compound 50] | 260 nM
17 | CCC(C)n1ncn(-c2ccc(N3CCN(c4ccc(OC[C@H]5CO[C@](CSc6nncn6C(C)C)(c6ccc(Cl)cc6)O5)cc4)CC3)cc2)c1=O (relative stereo) [Compound 52] | 250 nM
18 | CCC(C)n1ncn(-c2ccc(N3CCN(c4ccc(OC[C@H]5CO[C@](CSc6nnc(C)n6C)(c6ccc(Cl)cc6)O5)cc4)CC3)cc2)c1=O (relative stereo) [Compound 56] | 230 nM
19 | CCC(C)n1ncn(-c2ccc(N3CCN(c4ccc(OC[C@H]5CO[C@](CSc6nnc(O)n6C)(c6ccc(Cl)cc6)O5)cc4)CC3)cc2)c1=O (relative stereo) [Compound 58] | 310 nM

Continued by falling IC50, values first:

Row | IC50 | SMILES
20 | 91 nM | CC(C)Cn1cnn(-c2ccc(N3CCN(c4ccc(OC[C@@H]5CO[C@@](CSc6nncn6C)(c6ccc(Cl)cc6)O5)cc4)CC3)cc2)c1=O (relative stereo) [Compound 3]
21 | 84 nM | CCC(C)n1ncn(-c2ccc(N3CCN(c4ccc(OC[C@H]5CO[C@](CSc6nncn6CC)(c6ccc(Cl)cc6)O5)cc4)CC3)cc2)c1=O (relative stereo) [Compound 53]
22 | 79 nM | CCC(CC)n1cnn(-c2ccc(N3CCN(c4ccc(OC[C@@H]5CO[C@@](CSc6nncn6C)(c6ccc(Cl)cc6)O5)cc4)CC3)cc2)c1=O (relative stereo) [Compound 7]
23 | 79 nM | CCC(C)n1ncn(-c2ccc(N3CCN(c4ccc(OC[C@H]5CO[C@](CSc6nncn6CC(C)C)(c6ccc(Cl)cc6)O5)cc4)CC3)cc2)c1=O (relative stereo) [Compound 54]
24 | 78 nM | CCCn1cnnc1SC[C@]1(c2ccc(Cl)cc2)OC[C@H](COc2ccc(N3CCN(c4ccc(-n5cnn(C(C)CC)c5=O)cc4)CC3)cc2)O1 (relative stereo) [Compound 55]
25 | 77 nM | Cn1cnnc1SC[C@@]1(c2ccc(F)cc2)OC[C@@H](COc2ccc(N3CCN(c4ccc(-n5cnn(C6CCCC6)c5=O)cc4)CC3)cc2)O1 (relative stereo) [Compound 35]
26 | 71 nM | CCC(C)n1ncn(-c2ccc(N3CCN(c4ccc(OC[C@@H]5CO[C@@](CSc6nncn6C)(c6ccc(Cl)cc6)O5)cc4)CC3)cc2)c1=O (relative stereo) [Compound 22, (±)-cis-4-[4-[4-[4-[[2-(4-chlorophenyl)-2-[[(4-methyl-4H-1,2,4-triazol-3-yl)thio]methyl]-1,3-dioxolan-4-yl]methoxy]phenyl]-1-piperazinyl]-phenyl]-2,4-dihydro-2-(1-methylpropyl)-3H-1,2,4-triazol-3-one]
27 | 58 nM | Cn1cnnc1SC[C@@]1(c2ccc(Cl)cc2)OC[C@@H](COc2ccc(N3CCN(c4ccc(-n5cnn(C6CCCC6)c5=O)cc4)CC3)cc2)O1 (relative stereo) [Compound 24]
28 | 51 nM | CCC(CC)n1ncn(-c2ccc(N3CCN(c4ccc(OC[C@@H]5CO[C@@](CSc6nncn6C)(c6ccc(Cl)cc6)O5)cc4)CC3)cc2)c1=O (relative stereo) [Compound 44]
29 | 48 nM | CCCCn1cnn(-c2ccc(N3CCN(c4ccc(OC[C@@H]5CO[C@@](CSc6nncn6C)(c6ccc(Cl)cc6)O5)cc4)CC3)cc2)c1=O (relative stereo) [Compound 15]
30 | 47 nM | CCC(C)n1cnn(-c2ccc(N3CCN(c4ccc(OC[C@@H]5CO[C@@](CSc6nncn6C)(c6ccc(Cl)cc6)O5)cc4)CC3)cc2)c1=O (relative stereo) [Compound 2]
31 | 47 nM | CCCCn1cnnc1SC[C@@]1(c2ccc(Cl)cc2)OC[C@@H](COc2ccc(N3CCN(c4ccc(-n5cnn(C(C)CC)c5=O)cc4)CC3)cc2)O1 (relative stereo) [Compound 51]
32 | 46 nM | CCC(C)n1ncn(-c2ccc(N3CCN(c4ccc(OC[C@H]5CO[C@](CSc6ncnn6C)(c6ccc(Cl)cc6)O5)cc4)CC3)cc2)c1=O (relative stereo) [Compound 60]
33 | 41 nM | CCCCCn1cnn(-c2ccc(N3CCN(c4ccc(OC[C@@H]5CO[C@@](CSc6nncn6C)(c6ccc(Cl)cc6)O5)cc4)CC3)cc2)c1=O (relative stereo) [Compound 18]
